Paper PMC10442743 (Dalton Transactions (Cambridge, England : 2003), 2023)
Like-named read-outs stand apart in the source and are kept apart here.

How the values were obtained:
MCF-7 = test: MTT cytotoxicity assay, MCF-7 cells; type: cell-based, human; conditions: MTT
Description: (§1) The cytotoxicity of 1–11CA was assessed against human breast cancer MCF-7 and MDA-MB-231 cells, and non-tumorigenic adherent mouse fibroblast connective tissue L929 cells using the MTT assay after 24 and 72 h (Tables S5 ^† and Table 1, respectively).
(§2) Then, necessary dilutions were made using the supplement DMEM, to prepare the range of tested concentrations. Since DMSO was used to solubilize the compounds, a supplemented DMEM + DMSO (at the same percentage as in the sequential dilutions) was considered as a control in the 3-[4,5-dimetylthiazole-2-yl]-2,5-diphenyltetrazolium bromide (MTT) assay.
(§3) L929, MCF-7, and MDA-MB-231 cell lines were cultured in DMEM supplemented with 10% (v/v) FBS and 1% (v/v) of penicillin–streptomycin. The cells were incubated in a humidified chamber at 37 °C under saturated air with a 5% CO2 atmosphere. Cells were passed at 80%–90% of confluency with 0.25% (w/v) trypsin and the cell culture media was changed every 2–3 days.
(§4) The compounds were tested on two breast cancer cell lines (MCF-7 and MDA-MB-231) and L929 fibroblasts, used as a reference for the safety evaluation according to ISO 10993-1:2009 “Biological evaluation of medical devices”. Cells were seeded on sterile 96-well plates at 50 000 cells per well (L929) and 20 000 cells per well (MCF-7 and MDA-MB-231) in supplemented DMEM medium (100 μL) for 24 h. The culture medium was removed and new media containing different concentrations of the compounds (0–1000 μM) was added to the wells (100 μL). Control cells were incubated under the same conditions in the absence of a compound. Cells were incubated for 24 and 72 h under the same conditions described above. Then, the medium was removed, and the cells were incubated with 3-(4,5-dimethylthiazol-2-yl)-2,5-diphenyltetrazolium bromide (MTT; 0.5 mg mL^−1) for 3 h. After this time, the medium was removed, and formazan crystals were solubilized with DMSO (100 μL per well). The absorbance in each well was read on a SynergyTM HT Multimode microplate reader (BioTek Instruments; Winooski, VT, USA) at 570 and 630 nm (for background correction), and the cell viability was calculated according to the following equation (eqn (1)):1 [drawing 3] where OD570(sample) and OD630(sample) are the optical densities of the solutions containing the compounds and OD570(control) and OD630(control) are controls without compound.
(§5) Each apoptosis value determination represents the mean ± standard deviation of 2 independent assays. The IC50 values were obtained using GraphPad Prism software and ANOVA (analysis of variance) was performed to determine the statistical difference between the IC50 values of different cell lines.

MDA-MB-231 = test: MTT cytotoxicity assay, MDA-MB-231 cells; type: cell-based, human; conditions: MTT
Description: as §1, §2, §3, §4, §5

[1] = Molar conductivity in acetonitrile; type: physicochemical; conditions: 1 mM in acetonitrile, 25 °C
Description: The molar conductivity (ΛM, reported as S·cm2·mol–1) of solutions of 11CA in acetonitrile (1 mM) were measured in a Radiometer Copenhagen CDM92 equipped with a conductivity cell CDC641T glass platinum electrode at room temperature (25 °C). The conductivity of the pure solvent was used as standard controls.
Table S3. Solubility in water at 25 °C, n-octanol/water partition coefficient and molar conductivity of the 11CA. * below limit of detection = 5 ppt.

[2] = tested on: 14-mer ssDNA 5′–3′ (ATACATGGTACATA); conditions: 3 : 1 ratio, 37 °C, 24 h
Description: (§6) Tandem mass spectrometry was used to investigate the binding mode interaction of 11Cl with single- (ss) and double-strand (ds) DNA oligomers.[77,78]
(§7) 11Cl was incubated with 14-mer ssDNA 5′–3′ ([…]) and 6-mer dsDNA 5′–3′ (AGGCAG) in a 3 : 1 ratio at 37 °C in MilliQ water. After 24 h the solution was centrifuged with an Amicon® Ultra 0.5 mL centrifugal filter 3 kDa MWCO to remove the unreacted metal complex and excess salts.

[3] = tested on: 6-mer dsDNA 5′–3′ (AGGCAG); conditions: 3 : 1 ratio, 37 °C, 24 h
Description: as §6, §7

[4] = Stability in solution (ESI-MS, NMR); conditions: 1 mM
Description: The stability of 11CA under pseudo-physiological conditions was assessed using ESI-MS and ^1H and ^31P NMR spectroscopy.
Stability studies were performed on 11CA over 72 h at 37 °C.
The stability of 11Cl was also monitored over
72 h via 1H and 31P NMR spectroscopy. The complex was fully dissolved in d6-DMSO,
diluted with D2O to reach 10% d6-DMSO in D2O (1 mM final concentration) and, finally,
the pD was adjusted to 7.2 ± 0.1 (neutral conditions). Furthermore, the stability of 11Cl
and 11BPh4 was also assessed in 100% d6-DMSO (1 mM final concentration) as a highly

[5] = target: bovine serum albumin (BSA) (Bos taurus, UniProt P02769); test: BSA binding assay (tryptophan fluorescence quenching)
Description: BSA (16 μM) in 10 mM Tris-HCl pH 7.6 + 1 mM EDTA solution and varying concentrations of 11Cl (0–32 μM) were incubated at 37 °C for 24 h. Afterward, the fluorescence spectra were measured for each solution between 300 and 500 nm (λex = 280 nm). The intensity at λmax (340 nm) was recorded.

ct-DNA = test: Competitive DNA binding assay with fluorescent probes (DAPI, MG, PI)
Description: From the obtained fluorescence data, apparent DNA binding constants, Kapp, were calculated according to the competitive binding model described by Tse and Boger.[66]
Emission intensity measurements were performed using a SpectraMax M5e reader at room temperature. A 50 μM (bp) of ct-DNA was pre-incubated with the groove binding agents (MG and DAPI) (2 μM) and the intercalating agent propidium iodide (2 μM) for 30 min at 37 °C, to allow full interaction of the dyes into the ctDNA. Increasing amounts of 11Cl (0–100 μM) were added to this mixture and the final samples were incubated for 24 h at 37 °C. After incubation, the emission spectra were recorded at excitations of 633, 358, and 535 nm for the measurements of MG, DAPI, and PI, respectively. Quenching parameters were obtained by applying the Stern–Volmer equation (eqn (2)). The apparent binding constants, Kapp, were calculated according to the competitive binding model described by Tse and Boger[66] using eqn (4):[90]4 Kprobe[probe] = Kappc50where Kprobe is the binding constant of the probe, 9 × 10^5 and 5 × 10^6 M^−1 for MG[91] and DAPI,[92] respectively; [probe] is the concentration of probe used, 10 μM for both MG and DAPI; and c50 is the complex concentration when the fluorescence intensity of the probe is 50%. This value is obtained from the plot F0/F vs. [Q] when F0/F = 2.

[6] = complex concentration at 50% probe fluorescence, Table S9
[7] = ctDNA, DAPI competitive binding, Table S9
[8] = ctDNA, MG competitive binding, Table S9

bovine serum albumin (BSA), sequence (P02769 25-607): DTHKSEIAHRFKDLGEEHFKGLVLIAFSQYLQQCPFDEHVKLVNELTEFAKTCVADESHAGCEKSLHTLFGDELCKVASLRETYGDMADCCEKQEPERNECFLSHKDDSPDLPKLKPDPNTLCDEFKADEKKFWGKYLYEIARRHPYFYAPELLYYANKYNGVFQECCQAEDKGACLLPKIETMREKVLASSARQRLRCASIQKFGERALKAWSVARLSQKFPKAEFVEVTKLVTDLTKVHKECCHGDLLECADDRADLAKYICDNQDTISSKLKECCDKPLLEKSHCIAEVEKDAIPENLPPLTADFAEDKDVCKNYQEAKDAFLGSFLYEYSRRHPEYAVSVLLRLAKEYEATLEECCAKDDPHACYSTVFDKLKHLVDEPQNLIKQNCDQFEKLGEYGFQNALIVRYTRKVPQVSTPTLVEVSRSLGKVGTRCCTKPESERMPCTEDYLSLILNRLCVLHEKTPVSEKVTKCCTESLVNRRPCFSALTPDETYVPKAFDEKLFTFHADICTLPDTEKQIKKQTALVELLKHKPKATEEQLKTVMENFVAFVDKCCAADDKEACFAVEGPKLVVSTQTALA

Cc1ccccc1.[Cl-].[Cl][Ru+]([PH](c1ccccc1)(c1ccccc1)c1ccccc1)[PH](c1ccccc1)(c1ccccc1)c1ccccc1 [Compound 11Cl, [Ru(η^6-toluene)(PPh3)2Cl]Cl]
IC50 (MCF-7; 24 h exposure, read-out: IC50 (µM) (average ± standard deviation) 24 h MCF-7): 4 ± 0.3 µM | IC50 (MCF-7; 72 h exposure, read-out: IC50 (μM) (average ± standard deviation) 72 h MCF-7): 0.061 ± 0.003 µM | IC50 (MDA-MB-231; 24 h exposure, read-out: IC50 (µM) (average ± standard deviation) 24 h MDA-MB-231): 5.5 ± 0.6 µM | IC50 (MDA-MB-231; 72 h exposure, read-out: IC50 (μM) (average ± standard deviation) 72 h MDA-MB-231): 0.086 ± 0.006 µM | Conductivity (molar conductivity) [1]: 128 S·cm2/mol | identified ssDNA ions containing ruthenium [2]: 43% | identified dsDNA ions containing ruthenium [3]: 23% | stability by NMR spectroscopy in neutral conditions ([4]; 10% d6-DMSO in D2O, pD 7.2, 72 h): No signs of hydrolysis or decomposition were observed | stability in DMSO (NMR) ([4]; 100% d6-DMSO, 72 h): No changes were observed | bimolecular quenching rate kq (BSA) ([5]; BSA 16 μM, 37 °C, 24 h): 1.9e+12 M⁻¹ s⁻¹ | binding constant to BSA ([5]; BSA 16 μM, 37 °C, 24 h): 560000 M⁻¹ | KSV (BSA) ([5]; Table S8): 1.13 ± 0.08 104 M−1 | kq (BSA) ([5]; Table S8): 1.88 ± 0.14 1012 M−1 | n (number of binding sites, BSA) ([5]; Table S8): 1.4 | n (number of binding sites in BSA) ([5]; estimated value): ~1 | C50, DAPI probe (ct-DNA; [6]): 1.1 10−4 M | C50, MG probe (ct-DNA; [6]): 2.1 10−4 M | KSV, DAPI probe (ct-DNA; [7]): 8.8 ± 0.6 103 M−1 | Kapp, DAPI probe (ct-DNA; [7]): 4.4 ± 0.3 105 M−1 | kq, DAPI probe (ct-DNA; [7]): 3.3 ± 0.3 1012 M−1 | KSV, MG probe (ct-DNA; [8]): 4.8 ± 0.7 103 M−1 | Kapp, MG probe (ct-DNA; [8]): 0.43 ± 0.04 105 M−1 | kq, MG probe (ct-DNA; [8]): 0.48 ± 0.07 1012 M−1 | quenching of PI (intercalator probe) fluorescence (ct-DNA; ctDNA, probe PI): no linear quenching was observed | preference towards the minor groove (ct-DNA; from difference of Kapp values): 10 fold
